Where two headings read alike, the source gives them in different places.

The conditions of data set [1]: in comparison to a 15 mg dose of hydrocodone. From the text: In certain preferred embodiments, the opioid agonist is hydrocodone.
For data set [2] the following is noted: milligram-for-milligram basis; cited from earlier work.
Data set [3] is described as follows: TRNA therapy with topical apomorphine, onset of clinical effect. The class given is in vivo, human.
Data set [4] has as its system human patients.
For data set [5], the system named is human patients. Nature of the data set: Efficacy of topical opioid analgesic formulations in human patients (Example 6). The data set is classed as in vivo. An excerpt:
The efficacy of topical opioid analgesic formulations was studied in human patients.

Data set [6] deals with patients. Nature of the data set: Compounded topical morphine sulfate and tramadol, inventor's clinical experience (nuchal and peripheral application). The conditions noted are these: patients tapering off oral narcotics, nuchal delivery as only pain therapy.
Description: The dose for MS has been 2.5-5.0 mg and for tramadol, 40-80 mg, divided over two to three locations, as described herein.
With activation of opioid receptors potentially providing improved pain relief, MS and tramadol were compounded for topical administration.
For data set [7] the following is noted: compounded morphine in cold cream applied locally to skin at areas of pain; cited from earlier work.
For data set [8] the following is noted: cited from earlier work.
Another data set has as its system patient. The conditions noted are these: 1 mg twice daily.
In data set [9] the test system is patients. The conditions noted are these: cited from earlier work.
Setting [10] is: case 4, acute lumbar sprain, 1.0 mg application.
Where [11] appears, read: Patient C, 40 mg topical divided between knee and lower back.
[12] abbreviates: Patient E, 40 mg topical to neck and back in divided dose.
Setting [13] is: Patient F, 40 mg topical to nuchal region and lower back in divided doses.
The mark [14] stands for this setting: Patient H, 40 mg topical in 1 ml Lipoderm.

With `COc1ccc2c3c1O[C@H]1[C@@H](O)C=C[C@H]4[C@@H](C2)N(C)CC[C@@]341` [Codeine], the “Calculated Dose (mg), equianalgesic” value in data set [1] was 90.0 mg.

For the molecule `CC(=O)Oc1ccc2c3c1O[C@H]1[C@@H](OC(C)=O)C=C[C@H]4[C@@H](C2)N(C)CC[C@@]341` [Heroin, diacetylmorphine], the “potency relative to morphine” value in data set [2] is 1.5-2 times.

Turning to `COc1ccc2c3c1O[C@H]1C(=O)CC[C@H]4[C@@H](C2)N(C)CC[C@]314` [Hydrocodone], the “Calculated Dose (mg), equianalgesic” value in [1] is listed as 15.0 mg.

On to `CN1CC[C@]23CCCC[C@H]2[C@H]1Cc1ccc(O)cc13` [Levorphanol], for which the “Calculated Dose (mg), equianalgesic” value in data set [1] is recorded as 1.8 mg.

`CCC(=O)C(CC(C)N(C)C)(c1ccccc1)c1ccccc1` (stereo not drawn) [Methadone]: the “Calculated Dose (mg), equianalgesic” value in data set [1] is on record as 9.0 mg.

With `COc1ccc2c3c1O[C@H]1C(=O)CC[C@@]4(O)[C@@H](C2)N(C)CC[C@]314` [Oxycodone], in data set [1], the “Calculated Dose (mg), equianalgesic” value was 13.5 mg.

On to `CN1CCc2cccc3c2[C@H]1Cc1ccc(O)c(O)c1-3` [apomorphine], for which, in data set [3], the “onset of clinical effect” value is 10 to 15 min. Also, in the data set on human patients [4] (Example 3, cream of Example 1 over nerve entrapment areas or affected muscle), the “time to pain relief, all patients” value lay within 5 to 10 min. In the data set on human patients [4] (case 1, pregnant person, 0.5 mg at the wrist), the “outcome, carpal tunnel syndrome” value is “without recurrent symptoms”. Moreover, the pain relief result in the data set on human patients [4] (case 2, additional 0.5 mg after 24 hours) was “complete pain relief”. The pain relief in the data set on human patients [4] (case 2, tarsal tunnel syndrome/plantar fasciitis, runner, 0.5 mg application) is on record as 90%. Besides, the “outcome, pain” value with human patients [4] (case 3, hamstring injury, 0.5 mg) was “complete resolution of pain without recurrence”. In addition, the “time to resolution of pain” value in the data set with human patients [4] (case 3, hamstring injury, 0.5 mg to muscle and insertion site) lay in the range of 5 to 10 min. In addition, the “pain and spasm relief” value in the data set with human patients [4] (case 4 (person one), acute lumbar sprain, 1.0 mg application) is listed as 80-90%. In addition, in the data set with human patients [4] (setting [10]), the duration of relief entry is on record as “lasted overnight”; the “time to pain and spasm relief” value was in the range of 10 to 15 min. Besides, in the data set with human patients [4] (case 5, 0.5 mg application and heating pad), the “outcome, acute lumbar sprain from lifting” value is given as “without recurrent symptoms”. In addition, in the data set with human patients [4] (case 6, marathon runner, 0.5 mg to base of toe and 0.5 to tarsal tunnel), the “outcome, foot pain from stress fractures and tarsal tunnel” value was “experienced pain relief”. Also, the “tolerability of increased single dose” value in the data set on human patients [4] (single topical dose increased to 2 mg, peripheral application) is given as “without deleterious effects”.

For the molecule `CN1CC[C@]23c4c5ccc(O)c4O[C@H]2[C@@H](O)C=C[C@H]3[C@H]1C5.O=S(=O)(O)O` [morphine sulfate], the “further reduction in pain from baseline” value with human patients [5] (Patient G, 3 mg topical in Pass-gel to the nuchal region, on oral oxycodone) was 20-30%. In addition, in the data set with human patients [5] (Patient I, topical 2.5 mg in 0.5 ml Pass-gel, despite regular narcotics), the “reduction in baseline back and hip pain” value is recorded as 15-20%. The “time to reduction in pain” value lay within 10 to 15 min in the data set with human patients [5] (Patient K, topical 2.5 mg to the nuchal region) and 8 to 10 min in the data set with human patients [5] (Patient L, topical 2.5 mg to the nuchal region). In the data set on human patients [5] (Patient K, topical 2.5 mg to the nuchal region, from "severe"), the “headache and neck pain after treatment” value is on record as 0-1 of 10. Also, in the data set with human patients [5] (Patient L, topical 2.5 mg to the nuchal region, from about 8 of 10), the pain after treatment entry is recorded as “about 4 of 10”. Also, the narcotic withdrawal symptoms entry in the data set on patients [6] is on record as “no significant narcotic withdrawal symptoms”.

With `CN1CC[C@]23c4c5ccc(O)c4O[C@H]2[C@@H](O)C=C[C@H]3[C@H]1C5` [morphine], the additional pain relief with human patients [5] (Patient D, topical 2.5 mg in 0.5 ml Pass-gel, despite regular hydromorphone) is 20-30%. Also, the “morphine levels in blood or urine” value in [7] is reported as “not detected”.

Take `Clc1ccc2nsnc2c1NC1=NCCN1` [tizanidine]: in data set [8], the “absorption after oral administration” value is “completely absorbed”. Moreover, the “state of spastic upper extremity” value is “essentially back to normal” with patient (after a few months of continued therapy) and “visible improvement” with patient (within several weeks).

Turning to `COc1cccc(C2(O)CCCCC2CN(C)C)c1` (stereo not drawn) [tramadol], the pain relief result with human patients [5] (Patient A, topical in Lipoderm, 40 mg tramadol hydrochloride dose twice daily, nuchal region and back) is “Pain relief is achieved”. For the same molecule, in the data set with human patients [5] (Patient B, 15 minutes after 20 mg topical to nuchal region and lower back, baseline about 7-8/10), the “pain in the neck after treatment” value is given as “about 0 /10”. Also, in the data set on human patients [5] (Patient B, 15 minutes after 20 mg topical to nuchal region and lower back, baseline about 7/10), the “pain in the back and legs after treatment” value was “about 2 /10”. Further, in the data set on human patients [5] (Patient B, tramadol (Ultram) tablets), the “benefit of oral tablets in the past” value is listed as “without significant benefit”. Further, in the data set with human patients [5] (setting [11]), the eventual pain relief is 80-90% and the “time to initial reduction in pain” value is at most 15 min. Further, the “initial reduction in pain” value with human patients [5] (Patient C, right knee pain, 40 mg topical divided between knee (popliteal fossa) and lower back) is recorded as about 50%. Besides, in the data set with human patients [5] (Patient D, 40 mg topical at the nuchal region), the outcome was “with benefit”. Also, in the data set on human patients [5] (setting [12]), the reduction in pain is 70-80% and the “time to reduction in pain” value lay within 10 to 15 min. Also, in the data set on human patients [5] (setting [13]), the pain relief is reported as at least 70% and the “time to pain relief” value is at most 15 min. Also, in the data set on human patients [5] (setting [14]), the “duration of pain relief” value is about 48 h and the “time to pain relief” value was at most 15 min. In addition, the pain relief result with human patients [5] (Patient H, 40 mg topical in 1 ml Lipoderm to neck and back in divided doses) is given as “greater than 80%”. Further, the “outcome, pain (trigeminal neuralgia and cervical sprain)” value in the data set with human patients [5] (Patient J, topical 40 mg in 1 ml Lipoderm to the nuchal region) is reported as “dramatic improvement in pain”. For the same molecule, the “onset of withdrawal after the last dose” value with patients [9] (in most cases) was 12 to 20 h. Moreover, the “duration of acute withdrawal symptoms” value with patients [9] (versus three or four days for other codeine analogues) is on record as “seven days or more”. For the same molecule, the narcotic withdrawal symptoms entry in the data set with patients [6] is given as “no significant narcotic withdrawal symptoms”.

As for Meperidine, the “Calculated Dose (mg), equianalgesic” value in data set [1] is recorded as 135.0 mg.

The record behind these values is patent publication US20150352040A1 (priority 2010, published 2015).
